Our source for the IC50, response vs control in vivo and zone of inhibition values is EP0103381B1, “Substituted anthra(1,9-cd)pyrazol-6(2H)-ones” (WARNER-LAMBERT COMPANY, priority 1982, dated 1984).

Assay [1] concerns HCT-8 (human colon adenocarcinoma) cells. The experiment in a line: in vitro activity against human colon adenocarcinoma (HCT-8), cell count. It counts as cell-based. On the procedure:
HCT-8 (human colon adenocarcinoma) cells are trypsinized using Trypsin-EDTA. A single cell suspension is achieved by passing the cells through a 26 gauge needle with a 20 cc syringe. A cell suspension is prepared using RPMI 1640 growth medium (available from Gibco Laboratories) +10% fetal calf serum +50 µg/ml garamycin with a cell concentration of approximately 30,000 cells/ml. The cell suspension is dispensed in Linbro 24-well plates; 1 ml/well. The plates are incubated for approximately 48 hrs at 37°C in a 5% C02 atmosphere. At this time test compounds are added in the appropriate concentration. Five µl of the 200 µg/ml stock solution is added to each well in a primary test. Ten pl of the appropriate dilution is added to each well for a titration test. The plates are reincubated an additional 60-65 hrs at 37°C in a 5% C02 atmosphere. The test is read by lysing the cells using a mix of cationic surfactant, glacial acetic acid and sodium chloride. […] of the lysed cell suspension from each well is added to 8 ml of diluent. Each sample is read with a Coulter counter (ZBI model). The activity of each sample is measured as a percentage of the controls and the data is reported as ID50, that is the molar quantity of drug required to kill 50% of the tumor cells.

For assay [2], the system named is lymphocytic leukemia P388. As to the kind of experiment: in vivo lymphocytic leukemia P388 test. The arrangement: species or system mice. Particulars: Mus musculus, P388, ip, 720 h; for response vs control in vivo at 25 mg/kg: P388, Dose 25 mg/kg intraperitoneally; for response vs control in vivo at 1.56 mg/kg: P388, Dose 1.56 mg/kg intraperitoneally. The method, boiled down:
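CD2F mice (6–7 per group) were inoculated intraperitoneally with P388 leukemia ascitic cells. Compounds were then given i.p. as two doses four days apart at various levels. Survival over 30 days was expressed as treated/control time ratio, efficacy criterion T/C×100 >125%.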

Another assay concerns Penicillium avellaneum. The experiment in a line: agar plate paper-disc inhibition zone screening. Particulars: Hamigera avellanea, read-out: Inhibition Zone Diameter mm (Dose mg/ml) P. Avellaneum. It counts as cell-based. The method, boiled down: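 Mycelia and spores from a six-day 28°C agar culture, suspended in saline with 0.05% Tween 80 at 20% transmittancy, were seeded into molten agar trays. Compounds at 3,000, 1,000, 500, 100 and 10 mcg/ml (solvent <10%) were applied on 12.7 mm paper discs. After at least 20-24 h incubation, inhibition zone diameter was measured in mm.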

A further assay concerns Streptococcus faecalis. The experiment in a line: agar plate paper-disc inhibition zone screening. As to conditions: Enterococcus faecalis, read-out: Inhibition Zone Diameter mm (Dose mg/ml) S. Faecalis. The class given is cell-based. The method in brief: (§1)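 Overnight bacterial cultures were suspended in 0.85% saline to 20-35% light transmittancy and mixed into molten assay agar poured in trays. Compounds at 3,000, 1,000, 500, 100 and 10 mcg/ml (solvent <10%) were applied to 12.7 mm paper discs; after 18-20 h at 37°C, inhibition zone diameters were measured in mm.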

The test system of a further assay is Bacillus subtilis. The experiment in a line: agar plate paper-disc inhibition zone screening. It counts as cell-based. As to conditions: read-out: Inhibition Zone Diameter mm (Dose mg/ml) B. Subtilis. The method in brief:
as §1

The next assay relates to Escherichia coli. As to the kind of experiment: agar plate paper-disc inhibition zone screening. As to conditions: read-out: Inhibition Zone Diameter mm (Dose mg/ml) E. Coli. The class given is cell-based. The method in brief: as §1
For another assay, the system named is Aerobacter aerogenes. As to the kind of experiment: agar plate paper-disc inhibition zone screening. The class given is cell-based. As to conditions: Klebsiella aerogenes, read-out: Inhibition Zone Diameter mm (Dose mg/ml) A. Aerogenes. The method in brief:
as §1

Setting [3] is: P388, Dose 3.12 mg/kg intraperitoneally, two single doses four days apart, read-out: T/C × 100 (Percent).
Setting [4] is: P388, Dose 12.5 mg/kg intraperitoneally, two single doses four days apart, read-out: T/C × 100 (Percent).
Setting [5] is: two single doses four days apart, read-out: T/C × 100 (Percent).
Setting [6] is: P388, Dose 50 mg/kg intraperitoneally, two single doses four days apart, read-out: T/C × 100 (Percent).
Setting [7] is: HCT-8 human colon adenocarcinoma cells, 60-65 hrs incubation with compound, Coulter counter cell count as percentage of controls, read-out: ID50 (the source's name).
The mark [8] stands for this setting: P388, Dose 6.25 mg/kg intraperitoneally, two single doses four days apart, read-out: T/C × 100 (Percent).

The structures appear in SMILES notation. Structures can show the parent of a compound that is named as a salt. Where two headings read alike, the source gives them in different places.

As for `Cn1nc2c3c(c(NCCNCCO)ccc31)C(=O)c1c(O)ccc(O)c1-2` [Example 41, 7,10-Dihydroxy-5-[[2-[(2-hydroxyethyl)amino]ethyl]amino]-2-methylanthra[1,9-cd]pyrazol-6(2H)-one], the IC50 in assay [1] (Homo sapiens, HCT-8 cells, 60-65 hrs with compound, molar quantity of drug required to kill 50% of the tumor cells, read-out: ID50 Molar) stood at 790 nM. For the same compound, the response vs control in vivo at 3.12 mg/kg in assay [2] (setting [3]) stood at 138%. The response vs control in vivo at 12.5 mg/kg in assay [2] (setting [4]) is 140%. Further, the response vs control in vivo at 25 mg/kg in assay [2] (setting [5]) is 150%. The response vs control in vivo at 50 mg/kg in assay [2] (setting [6]) was 162%. Moreover, the response vs control in vivo at 100 mg/kg in assay [2] (P388, Dose 100 mg/kg intraperitoneally, two single doses four days apart, read-out: T/C × 100 (Percent)) was 174%.
For the compound `O=C1c2cccc(O)c2-c2nn(CCNCCO)c3ccc(NCCNCCO)c1c23`, in assay [1] (setting [7]), the IC50 was 1100 nM.
On to `CN(C)CCn1nc2c3c(c(NCCCN)ccc31)C(=O)c1c(O)ccc(O)c1-2` [7,10-(OH)2; (CH2)2NMe2·2HCl; NH(CH2)3NH2], for which, in assay [1] (setting [7]), the IC50 was found to be 1100 nM.
In the case of `NCCn1nc2c3c(c(NCCCNCCO)ccc31)C(=O)c1c(O)ccc(O)c1-2`, the IC50 in assay [1] (setting [7]) was 280 nM.
On the same count and under the same terms, next, `CN1CCN(c2ccc3c4c(nn3CCNCCO)-c3c(O)ccc(O)c3C(=O)c24)CC1`: 540 nM.
As for `CCN(CC)CCn1nc2c3c(c(NCCNC)ccc31)C(=O)c1c(O)ccc(O)c1-2`, the IC50 in assay [1] (setting [7]) was determined as 120 nM.
Take `CCN(CC)CC(O)Cn1nc2c3c(c(NCCNCCO)ccc31)C(=O)c1c(O)ccc(O)c1-2` (stereo not drawn): the IC50 in assay [1] (setting [7]) turned out to be 690 nM.
Turning to `NCCn1nc2c3c(c(NCCNCCO)ccc31)C(=O)c1c(O)ccc(O)c1-2` [Example 71, 2-(2-Aminoethyl)-7,10-dihydroxy-5-[[2-[(2-hydroxyethyl)amino]ethyl]amino]anthra[1,9-cd]pyrazol-6(2H)-one], in assay [1] (setting [7]), the IC50 amounted to 1700 nM. Further, in assay [2] (setting [5]), the response vs control in vivo at 1.56 mg/kg was 153% and the response vs control in vivo at 25 mg/kg was found to be 257%. In assay [2] (setting [3]), the response vs control in vivo at 3.12 mg/kg was determined as 160%. For the same compound, in assay [2] (setting [8]), the response vs control in vivo at 6.25 mg/kg turned out to be 163%. In addition, the response vs control in vivo at 12.5 mg/kg in assay [2] (setting [4]) worked out at 182%.
Take `CNCCNc1ccc2c3c(nn2CCNCCO)-c2cccc(O)c2C(=O)c13`: in assay [1] (setting [7]), the IC50 was determined as 27 nM.
As to `CN(C)CCCn1nc2c3c(c(NCCCN)ccc31)C(=O)c1c(O)ccc(O)c1-2` [7,10-(OH)2; (CH2)3NMe2·2HCl; NH(CH2)3NH2], the IC50 in assay [1] (setting [7]) turned out to be 350 nM.
Turning to `CN(C)CCn1nc2c3c(c(NCCNCCO)ccc31)C(=O)c1c(O)ccc(O)c1-2`, in assay [1] (setting [7]), the IC50 is 180 nM.
On to `NCCCNc1ccc2c3c(nn2CCN)-c2c(O)ccc(O)c2C(=O)c13`, for which the IC50 in assay [1] (setting [7]) came out at 850 nM.
Turning to `O=C1c2c(O)cccc2-c2nn(CCNCCO)c3ccc(NCCNCCO)c1c23`, the IC50 in assay [1] (setting [7]) turned out to be 61 nM.
Regarding `CCN(CC)CC(O)Cn1nc2c3c(c(NCCN)ccc31)C(=O)c1c(O)ccc(O)c1-2` (stereo not drawn), the IC50 in assay [1] (setting [7]) was 460 nM.
Turning to `NCCNc1ccc2c3c(nn2CCN)-c2c(O)ccc(O)c2C(=O)c13` [7,10-(OH)2; (CH2)2NH2·2HCl; NH(CH2)2NH2], the IC50 in assay [1] (setting [7]) amounted to 910 nM.
Take `NCCCn1nc2c3c(c(NCCNCCO)ccc31)C(=O)c1c(O)ccc(O)c1-2` [Example 90, 2-(3-Aminopropyl)-7,10-dihydroxy-5-[[2-[(2-hydroxyethyl)amino]ethyl]amino]anthra[1,9-cd]pyrazol-6(2H)-one]: the values for the zone of inhibition at 3000 µg/mL with Penicillium avellaneum (Dose 3.0 mg/ml), in the assay with Streptococcus faecalis (Dose 3.0 mg/ml) and in the assay with Bacillus subtilis (Dose 3.0 mg/ml) were 0 mm, 0 mm and 16 mm, respectively. Moreover, in assay [1] (setting [7]), the IC50 is 770 nM. Besides, in assay [2] (setting [5]), the response vs control in vivo at 25 mg/kg worked out at 285%. In assay [2] (setting [6]), the response vs control in vivo at 50 mg/kg turned out to be 285%.
With `CN(CCO)CCn1nc2c3c(c(NCCNCCO)ccc31)C(=O)c1c(O)ccc(O)c1-2`, the IC50 in assay [1] (setting [7]) was determined as 450 nM.
As to `CN(C)CCn1nc2c3c(c(NCCN)ccc31)C(=O)c1c(O)ccc(O)c1-2` [7,10-(OH)2; (CH2)2NMe2·2HCl; NH(CH2)2NH2], the IC50 in assay [1] (setting [7]) was 140 nM.
In the case of `CNCCn1nc2c3c(c(NCCNCCO)ccc31)C(=O)c1c(O)ccc(O)c1-2` [Example 93, 7,10-Dihydroxy-5-[[2-[(2-hydroxyethyl)amino]ethyl]amino]-2-[2-(methylamino)ethyl]anthra[1,9-cd]pyrazol-6(2H)-one], the IC50 in assay [1] (setting [7]) came to 230 nM. Moreover, the response vs control in vivo at 12.5 mg/kg in assay [2] (setting [4]) turned out to be 147%.
On to `CNCCNc1ccc2c3c(nn2CCNCCO)-c2c(O)ccc(O)c2C(=O)c13`, for which the IC50 in assay [1] (setting [7]) was 400 nM.
For the compound `CN(C)CCNc1ccc2c3c(nn2CCO)-c2c(O)ccc(O)c2C(=O)c13` [7,10-(OH)2; (CH2)2OH·HCl; NH(CH2)2NMe2], in assay [1] (setting [7]), the IC50 was 170 nM.
For `NCCCNc1ccc2c3c(nn2CCNCCO)-c2c(O)ccc(O)c2C(=O)c13` [Example 58, 5-[(3-Aminopropyl)amino]-7,10-dihydroxy-2-[2-[(2-hydroxyethyl)amino]ethyl]anthra[1,9-cd]pyrazol-6(2H)-one], the zone of inhibition at 3000 µg/mL worked out at 0 mm with Penicillium avellaneum; 0 mm in the assay with Streptococcus faecalis; 0 mm with Bacillus subtilis; 15 mm in the assay on Escherichia coli; 14 mm in the assay with Aerobacter aerogenes. The response vs control in vivo at 3.12 mg/kg in assay [2] (read-out: T/C × 100 (Percent), P388, Dose 3.12 mg/kg intraperitoneally, two single doses four days apart) worked out at 165%. In addition, in assay [2] (read-out: T/C × 100 (Percent), P388, Dose 6.25 mg/kg intraperitoneally, two single doses four days apart), the response vs control in vivo at 6.25 mg/kg is 165%. The response vs control in vivo at 12.5 mg/kg in assay [2] (read-out: T/C × 100 (Percent), P388, Dose 12.5 mg/kg intraperitoneally, two single doses four days apart) was found to be 177%. In addition, in assay [2] (read-out: T/C × 100 (Percent), P388, Dose 50 mg/kg intraperitoneally, two single doses four days apart), the response vs control in vivo at 50 mg/kg is 254%. Moreover, the response vs control in vivo at 100 mg/kg in assay [2] (read-out: T/C × 100 (Percent), P388, Dose 100 mg/kg intraperitoneally, two single doses four days apart) amounted to 131%.
With `O=C1c2c(O)ccc(O)c2-c2nn(CCNCCO)c3ccc(NCCNCCO)c1c23` [Example 54, 7,10-Dihydroxy-2-[2-[12-hydroxyethyl)amino]ethyl]-5-[[2-[(2-hydroxyethyl)amino]ethyl]amino]anthra[1,9-cdlpyrazol-6(2H)-one], the zone of inhibition at 3000 µg/mL was 0 mm with Penicillium avellaneum (Dose 3.0 mg/ml), 0 mm in the assay with Streptococcus faecalis (Dose 3.0 mg/ml), 14 mm in the assay on Bacillus subtilis (Dose 3.0 mg/ml) and 15 mm in the assay with Aerobacter aerogenes (Dose 3.0 mg/ml). Moreover, in the assay with Escherichia coli (Dose 1.0 mg/ml), the zone of inhibition at 1000 µg/mL came to 14 mm. In addition, the response vs control in vivo at 1.56 mg/kg in assay [2] (setting [5]) was determined as 158%. For the same compound, in assay [2] (setting [3]), the response vs control in vivo at 3.12 mg/kg was found to be 187%. For the same compound, the response vs control in vivo at 6.25 mg/kg in assay [2] (setting [8]) is 206%. The response vs control in vivo at 25 mg/kg in assay [2] (setting [5]) was 158%. Also, in assay [2] (setting [6]), the response vs control in vivo at 50 mg/kg is 139%.
